Reference: paper PMC10079235 (PLOS Neglected Tropical Diseases, 2023)
Where a name gives a salt, the structure may show the parent alone. Read-outs that look alike come from different tables or passages of the source.

Assays:
[1] = system: HCT-8/WT cells; assay: MTS cytotoxicity (drug tolerance) assay; conditions: for TC50: WT cells, no drug selection, MTS assay
Description: (§1) Host cell drug tolerance to specified inhibitors was evaluated by 3-(4,5-dimethylthiazol-2-yl)-5-(3-carboxymethoxyphenyl)-2-(4-sulfophenyl)-2H-tetrazolium (MTS) assay. WT and transgenic host cells were seeded in 96-well plates (10,000 cells/well) and cultured for 24 h, followed by the addition of specified compounds at serially diluted concentrations and continued culture for 41 h. After 3 washes with serum-free medium, MTS solution (Saint-Bio, Shanghai, China) was added into the plates (20 μL/well) and incubated at 37°C for 2 h. Optical density at 490 nm (OD490) was measured using a Synergy LX multi-mode reader (BioTek, Winooski, VT). Drug tolerance was indicated by half-maximal cytotoxic concentrations (TC50 values) calculated by nonlinear regression using 4PL model. Selectivity index (SI) for each compound was determined by the ratio between TC50 and EC50 values (SI = TC50/EC50).

[2] = system: HCT-8/WT(NTZ) cells; assay: MTS cytotoxicity (drug tolerance) assay; conditions: for TC50: human, 41 h
Description: as §1
(§2) Surviving cells were allowed to recover in drug-free medium for 3–5 d to near confluence (round 1). The selection/recovery cycle were repeated once (round 2). […] Finally, all cells were cultured at the final selection concentrations of PTX or NTZ for ≥7 d, followed by culture in drug-free medium for 14 d. At this time point, cells were used for cytotoxicity and efficacy assays or cryopreserved in a liquid nitrogen tank. The resulting cell lines after PTX or NTZ selection were designated as WT(PTX), NC(PTX) and MDR1(PTX), or WT(NTZ), NC(NTZ) and MDR1(NTZ), respectively (Tables 1 and S2).

[3] = system: HCT-8/NC(NTZ) cells; assay: MTS cytotoxicity (drug tolerance) assay; conditions: for TC50: human, 41 h
Description: as §1, §2

[4] = system: HCT-8/MDR1(PTX) cells; conditions: for TC50: MDR1(PTX) cells; for Pct change of TC50 (vs NC): MDR1(PTX) vs NC cells
Description: as §1
(§3) Surviving cells were allowed to recover in drug-free medium for 3–5 d to near confluence (round 1). The selection/recovery cycle were repeated once (round 2). […] The resulting cell lines after PTX or NTZ selection were designated as WT(PTX), NC(PTX) and MDR1(PTX), or WT(NTZ), NC(NTZ) and MDR1(NTZ), respectively (Tables 1 and S2).

[5] = system: HCT-8/MDR1(NTZ) cells; assay: MTS cytotoxicity (drug tolerance) assay; conditions: for TC50: MDR1(NTZ) cells
Description: as §1, §3

[6] = system: HCT-8/WT(PTX) cells; assay: MTS cytotoxicity (drug tolerance) assay; conditions: for TC50: human, 41 h
Description: as §1, §3

[7] = system: HCT-8/NC(PTX) cells; assay: MTS cytotoxicity (drug tolerance) assay; conditions: for TC50: human, 41 h
Description: as §1, §3

[8] = system: HCT-8/MDR1 cells; assay: MTS cytotoxicity (drug tolerance) assay; conditions: for TC50: MDR1 cells, no drug selection, MTS assay
[9] = system: HCT-8/NC cells; conditions: human, 41 h
[10] = system: Cryptosporidium parvum; assay: Anti-cryptosporidial efficacy assay (44-h infection/qRT-PCR); conditions: for EC50: Cryptosporidium parvum; for On-target (Eon) rate at EC50 / Off-target (Eoff) rate at EC50: MDR1(PTX) cell model; for On-target (Eon) rate at EC50: Eq 2; for Off-target (Eoff) rate at EC50: from Pct changes of EC50 and TC50 (Eq 1); for Action on parasite target (on-target) conclusion: MDR1-transgenic host cell model; for Eoff, proportion of off-parasite-target effect / Eon, proportion of on-parasite-target effect: MDR1(PTX) vs. NC model, Eq 3 and 4
[11] = MDR1, read-out: Antiparasitic efficacy (EC50), C. parvum cultured in MDR1(PTX) host cells
[12] = read-out: Antiparasitic efficacy (EC50), C. parvum cultured in NC host cells
[13] = read-out: Antiparasitic efficacy (EC50), C. parvum cultured in WT host cells

| SMILES | TC50 [1] | TC50 [2] | TC50 [3] | TC50 ([4]; after selection by PTX) | TC50 ([5]; after selection by NTZ) | TC50 [6] | TC50 [7] | TC50 [8] | TC50 [9] | Pct change of TC50 (vs NC) [4] | EC50 [10, 11] | EC50 [10, 12] | EC50 [10, 13] | Off-target (Eoff) rate at EC50 [10] | Action on parasite target (on-target) conclusion [10] | Eoff, proportion of off-parasite-target effect ([10]; at EC10) | Eoff, proportion of off-parasite-target effect ([10]; at EC20) | Eoff, proportion of off-parasite-target effect ([10]; at EC30) | Eoff, proportion of off-parasite-target effect ([10]; at EC40) | Eoff, proportion of off-parasite-target effect ([10]; at EC50) | also measured |
| --- | --- | --- | --- | --- | --- | --- | --- | --- | --- | --- | --- | --- | --- | --- | --- | --- | --- | --- | --- | --- | --- |
| COc1cccc2c1C(=O)c1c(O)c3c(c(O)c1C2=O)C[C@@](O)(C(C)=O)C[C@@H]3O[C@H]1C[C@H](N)[C@H](O)[C@H](C)O1 [Daunorubicin, Daunorubicin HCl] | 3.91 µM | 4.09 µM | 3.85 µM | 10.23 µM | 3.93 µM | 3.88 µM | 4.05 µM | 3.95 µM | 4.16 µM | – | – | – | – | – | – | – | – | – | – | – | Fold increase of TC50 WT(NTZ) vs. WT [2]: 1.05; Fold increase of TC50 NC(NTZ) vs. NC [3]: 0.93; Fold change of TC50 MDR1(PTX) vs. NC ([4]; after selection by PTX): 2.46; Fold change of TC50 MDR1(PTX) vs. MDR1 ([4]; after selection by PTX vs parent cell line): 2.59; Fold change of TC50 MDR1(PTX)/NC(PTX) ([4]; ratio of TC50): 2.53; Fold increase of TC50 MDR1(NTZ) vs. NC ([5]; after selection by NTZ): 0.94; Fold increase of TC50 MDR1(NTZ) vs. MDR1 ([5]; after selection by NTZ vs parent cell line): 0.99; Fold change of TC50 WT(PTX) vs. WT [6]: 0.99; Fold change of TC50 NC(PTX) vs. NC [7]: 0.97; Fold change of TC50 MDR1/NC ([8]; ratio of TC50, MDR1 vs NC cells): 0.95 |
| COc1cccc2c1C(=O)c1c(O)c3c(c(O)c1C2=O)C[C@@](O)(C(=O)CO)C[C@@H]3O[C@H]1C[C@H](N)[C@H](O)[C@H](C)O1 [Doxorubicin, Doxorubicin HCl] | 4.03 µM | 4.18 µM | 4.21 µM | – | 6.90 µM | 4.24 µM | 4.15 µM | 6.67 µM | 4.34 µM | 140.3% | 1950 nM | 1190 nM | 1180 nM | 45.5% | partially on-target | 26.90% | 32.80% | 37.30% | 41.30% | 45.3% | On-target (Eon) rate at EC50 [10]: 54.5%; On-target (Eon) rate at EC50 ([10]; listed as DXR): 54.5%; Eon, proportion of on-parasite-target effect ([10]; at EC10): 73.10%; Eon, proportion of on-parasite-target effect ([10]; at EC20): 67.20%; Eon, proportion of on-parasite-target effect ([10]; at EC30): 62.70%; Eon, proportion of on-parasite-target effect ([10]; at EC40): 58.70%; Eon, proportion of on-parasite-target effect ([10]; at EC50): 54.7%; Eoff, proportion of off-parasite-target effect ([10]; at EC60): 49.60%; Eon, proportion of on-parasite-target effect ([10]; at EC60): 50.40%; Eoff, proportion of off-parasite-target effect ([10]; at EC80): 61.40%; Eon, proportion of on-parasite-target effect ([10]; at EC80): 38.60%; Eoff, proportion of off-parasite-target effect ([10]; at EC90): 72.90%; Eon, proportion of on-parasite-target effect ([10]; at EC90): 27.10% |
| CC(=O)O[C@H]1C(=O)[C@@]2(C)[C@H]([C@H](OC(=O)c3ccccc3)[C@]3(O)C[C@H](OC(=O)[C@H](O)[C@@H](NC(=O)c4ccccc4)c4ccccc4)C(C)=C1C3(C)C)[C@]1(OC(C)=O)CO[C@@H]1C[C@@H]2O [Paclitaxel] | 12.75 µM | 12.51 µM | 12.73 µM | 45.86 µM | 21.94 µM | 16.03 µM | – | 20.22 µM | 12.37 µM | 270.7% | 290 nM | 300 nM | 310 nM | -1.2% | 100% on-target | -4.20% | -3.30% | -2.60% | -2.10% | −1.5% | Calculated cytotoxicity at EC50 ([1]; percent inhibition of WT host cell growth at the EC50 concentration, calculated with Eq 5 from k and h): 1.92%; Eoff, proportion of off-parasite-target effect ([10]; at EC60): -1.00%; Eoff, proportion of off-parasite-target effect ([10]; at EC70): -0.40%; Eoff, proportion of off-parasite-target effect ([10]; at EC80): 0.30%; Eoff, proportion of off-parasite-target effect ([10]; at EC90): 1.50% |
